Values joined by “and” are separate entries in the source; they are usually repeats but may differ in a detail not shown here. Equal values may be shown once.
Experiments:
Assay in all cases: Pre-emergence action against weeds (greenhouse)
Format in all cases: in vivo
[1] = system: ALOMY—sensitive (Alopecurus myosuroides); settings: for Herbicidal action ALOMY sensitive: pre-emergence
Excerpt: (§1) Depending on the trial conditions, the soil of the standard field soil is sterile or not sterile.
(§2) The amount of water used for spray application was 300l/ha.
ALOMY—sensitive (Alopecurus myosuroides) sensitive to customary herbicidally active compounds.
(§3) Insofar as herbicidal effects of the compositions according to the invention compared to mixtures of the prior art or compared to components applied individually against economically important mono- and dicotyledonous harmful plants were the centre of attention, the synergistic herbicidal activities were calculated using Colby's formula (cf. S. R. Colby; Weeds 15 (1967), 20-22): […]

[2] = system: ALOMY—resistant (Alopecurus myosuroides); settings: for Herbicidal action ALOMY resistant: pre-emergence
Excerpt: as §1, §2
ALOMY—resistant (Alopecurus myosuroides) resistant to herbicidally active compounds of the HRAC groups A and B; population mixture of field origin having increased metabolic resistance (IMR) and some target site resistance (TSR).
as §3

[3] = system: LOLRI—sensitive (Lolium rigidum); settings: for Herbicidal action LOLRI sensitive: pre-emergence
Excerpt: as §1, §2
LOLRI—sensitive (Lolium rigidum) sensitive to customary herbicidally active compounds.
as §3

[4] = system: LOLRI—resistant (Lolium rigidum); settings: for Herbicidal action LOLRI resistant: pre-emergence
Excerpt: as §1, §2
LOLRI—resistant (Lolium rigidum) resistant to herbicidally active compounds of the HRAC groups A and B; population mixture of field origin having increased metabolic resistance (IMR) and some target site resistance (TSR).
as §3

[5] = system: AVEFA (Avenafatua); settings: for Herbicidal action AVEFA: pre-emergence
Excerpt: as §1, §2
AVEFA (Avenafatua)—Wild oat
as §3

[6] = system: BROST (Bromus sterilis); settings: for Herbicidal action BROST: pre-emergence
Excerpt: as §1, §2
BROST (Bromus sterilis)—Bromegrass, barren
as §3

[7] = system: PAPRH (Papaver rhoeas)
Excerpt: as §1, §2
PAPRH (Papaver rhoeas)—Poppy, common
as §3

[8] = system: SORHA (Sorghum halepense); settings: for Herbicidal action SORHA: pre-emergence
Excerpt: as §1, §2
SORHA (Sorghum halepense)—Johnsongrass
as §3

[9] = system: CENCY (Centaurea cyanus); settings: for Herbicidal action CENCY: pre-emergence
Excerpt: as §1, §2
CENCY (Centaurea cyanus)—Cornflower
as §3

[10] = system: VERHE (Veronica hederaefolia); settings: for Herbicidal action VERHE: pre-emergence
Excerpt: as §1, §2
VERHE (Veronica hederaefolia)—Speedwell, iveleaf
as §3

[11] = system: EMEAU (Emex australis); settings: for Herbicidal action EMEAU: pre-emergence
Excerpt: as §1, §2
EMEAU (Emex australis)—Cathead
as §3

[12] = system: RAPRA (Raphanus raphanistrum); settings: for Herbicidal action RAPRA: pre-emergence
Excerpt: as §1, §2
RAPRA (Raphanus raphanistrum)—Charlock, jointed
as §3

[13] = system: BRSNW (Brassica napus); settings: for Herbicidal action BRSNW: pre-emergence
Excerpt: as §1, §2
BRSNW (Brassica napus)—Rape, winter
as §3

[14] = system: TRZAS (Triticum aestivum); settings: for Herbicidal action (crop damage) TRZAS: pre-emergence
Excerpt: as §1, §2
TRZAS (Triticum aestivum)—Wheat, spring
as §3

[15] = system: HORVS (Hordeum vulgare); settings: for Herbicidal action (crop damage) HORVS: pre-emergence
Excerpt: as §1, §2
HORVS (Hordeum vulgare)—Barley, spring
as §3

Cc1ccccc1CO[C@@H]1C[C@@]2(C(C)C)CC[C@]1(C)O2 (racemic) [Cinmethylin, (+/−)-2-exo-(2-methylbenzyloxy)-1-methyl-4-isopropyl-7-oxabicyclo[2.2.1]heptane]
herbicidal action ([1]; 10 g AS/ha): 0% | herbicidal action ([1]; 25 g AS/ha): 80% | herbicidal action ([1]; 50 g AS/ha): 80% | herbicidal action ([1]; 100 g AS/ha): 90% | herbicidal action ([1]; 250 g AS/ha): 100% | herbicidal action ([1]; 500 g AS/ha): 100% | Herbicidal action ALOMY sensitive ([1]; dose 50 g AS/ha): 80 | herbicidal action ([2]; 10 g AS/ha): 0% | herbicidal action ([2]; 25 g AS/ha): 60% | herbicidal action ([2]; 50 g AS/ha): 70% | herbicidal action ([2]; 100 g AS/ha): 70% | herbicidal action ([2]; 250 g AS/ha): 90% | herbicidal action ([2]; 500 g AS/ha): 100% | Herbicidal action ALOMY resistant ([2]; dose 50 g AS/ha): 70 | herbicidal action ([3]; 10 g AS/ha): 0% | herbicidal action ([3]; 25 g AS/ha): 70% | herbicidal action ([3]; 50 g AS/ha): 90% | herbicidal action ([3]; 100 g AS/ha): 100% | herbicidal action ([3]; 250 g AS/ha): 100% | herbicidal action ([3]; 500 g AS/ha): 100% | Herbicidal action LOLRI sensitive ([3]; dose 50 g AS/ha): 90 | herbicidal action ([4]; 10 g AS/ha): 0% | herbicidal action ([4]; 25 g AS/ha): 70% | herbicidal action ([4]; 50 g AS/ha): 85% and 100% | herbicidal action ([4]; 100 g AS/ha): 100% | herbicidal action ([4]; 250 g AS/ha): 100% | herbicidal action ([4]; 500 g AS/ha): 100% | Herbicidal action LOLRI resistant ([4]; dose 50 g AS/ha): 100 | herbicidal action ([5]; 10 g AS/ha): 0% | herbicidal action ([5]; 25 g AS/ha): 0% | herbicidal action ([5]; 50 g AS/ha): 0% | herbicidal action ([5]; 100 g AS/ha): 25% | herbicidal action ([5]; 250 g AS/ha): 50% | herbicidal action ([5]; 500 g AS/ha): 70% | Herbicidal action AVEFA ([5]; dose 50 g AS/ha): 0 | herbicidal action ([6]; 10 g AS/ha): 0% | herbicidal action ([6]; 25 g AS/ha): 20% | herbicidal action ([6]; 50 g AS/ha): 50% | herbicidal action ([6]; 100 g AS/ha): 100% | herbicidal action ([6]; 250 g AS/ha): 100% | herbicidal action ([6]; 500 g AS/ha): 100% | Herbicidal action BROST ([6]; dose 50 g AS/ha): 50 | herbicidal action ([7]; 10 g AS/ha): 0% | herbicidal action ([7]; 25 g AS/ha): 0% | herbicidal action ([7]; 50 g AS/ha): 0% | herbicidal action ([8]; 50 g AS/ha): 65% | herbicidal action ([8]; 100 g AS/ha): 70% | herbicidal action ([8]; 250 g AS/ha): 80% | herbicidal action ([8]; 500 g AS/ha): 100% | Herbicidal action SORHA ([8]; dose 50 g AS/ha): 65 | herbicidal action ([9]; 50 g AS/ha): 0% | herbicidal action ([9]; 100 g AS/ha): 0% | herbicidal action ([9]; 250 g AS/ha): 30% | herbicidal action ([9]; 500 g AS/ha): 80% | Herbicidal action CENCY ([9]; dose 50 g AS/ha): 0 | herbicidal action ([10]; 10 g AS/ha): 0% | herbicidal action ([10]; 25 g AS/ha): 0% | herbicidal action ([10]; 50 g AS/ha): 0% | herbicidal action ([10]; 100 g AS/ha): 0% | herbicidal action ([10]; 250 g AS/ha): 0% | herbicidal action ([10]; 500 g AS/ha): 0% | Herbicidal action VERHE ([10]; dose 50 g AS/ha): 0 | herbicidal action ([11]; 10 g AS/ha): 0% | herbicidal action ([11]; 25 g AS/ha): 0% | herbicidal action ([11]; 50 g AS/ha): 0% | herbicidal action ([11]; 100 g AS/ha): 0% | herbicidal action ([11]; 250 g AS/ha): 0% | herbicidal action ([11]; 500 g AS/ha): 0% | Herbicidal action EMEAU ([11]; dose 50 g AS/ha): 0 | herbicidal action ([12]; 10 g AS/ha): 0% | herbicidal action ([12]; 25 g AS/ha): 0% | herbicidal action ([12]; 50 g AS/ha): 0% | herbicidal action ([12]; 100 g AS/ha): 0% | herbicidal action ([12]; 250 g AS/ha): 30% | herbicidal action ([12]; 500 g AS/ha): 40% | Herbicidal action RAPRA ([12]; dose 50 g AS/ha): 0 | herbicidal action ([13]; 10 g AS/ha): 0% | herbicidal action ([13]; 25 g AS/ha): 0% | herbicidal action ([13]; 50 g AS/ha): 0% | herbicidal action ([13]; 100 g AS/ha): 0% | herbicidal action ([13]; 250 g AS/ha): 0% | herbicidal action ([13]; 500 g AS/ha): 10% | Herbicidal action BRSNW ([13]; dose 50 g AS/ha): 0 | herbicidal action ([14]; 10 g AS/ha): 0% | herbicidal action ([14]; 25 g AS/ha): 0% | herbicidal action ([14]; 50 g AS/ha): 30% | herbicidal action ([14]; 100 g AS/ha): 40% | herbicidal action ([14]; 250 g AS/ha): 75% | herbicidal action ([14]; 500 g AS/ha): 90% | Herbicidal action (crop damage) TRZAS ([14]; dose 50 g AS/ha): 30 | herbicidal action ([15]; 10 g AS/ha): 0% | herbicidal action ([15]; 25 g AS/ha): 0% | herbicidal action ([15]; 50 g AS/ha): 30% | herbicidal action ([15]; 100 g AS/ha): 40% | herbicidal action ([15]; 250 g AS/ha): 65% | herbicidal action ([15]; 500 g AS/ha): 70% | Herbicidal action (crop damage) HORVS ([15]; dose 50 g AS/ha): 30

CCOC(=O)C1=NN(c2ccc(Cl)cc2Cl)C(C)(C(=O)OCC)C1 (stereo not shown) [Mefenpyr, ethyl 1-(2,4-dichlorophenyl)-5-(ethoxycarbonyl)-5-methyl-2-pyrazoline-3-carboxylate]
herbicidal action ([1]; 300 g AS/ha): 0% | Herbicidal action ALOMY sensitive ([1]; dose 10 g AS/ha): 0 | Herbicidal action ALOMY sensitive ([1]; dose 100 g AS/ha): 0 | herbicidal action ([2]; 300 g AS/ha): 0% | Herbicidal action ALOMY resistant ([2]; dose 10 g AS/ha): 0 | Herbicidal action ALOMY resistant ([2]; dose 100 g AS/ha): 0 | herbicidal action ([3]; 300 g AS/ha): 0% | Herbicidal action LOLRI sensitive ([3]; dose 10 g AS/ha): 0 | Herbicidal action LOLRI sensitive ([3]; dose 100 g AS/ha): 0 | herbicidal action ([4]; 300 g AS/ha): 0% | Herbicidal action LOLRI resistant ([4]; dose 10 g AS/ha): 0 | Herbicidal action LOLRI resistant ([4]; dose 100 g AS/ha): 0 | herbicidal action ([5]; 300 g AS/ha): 0% | Herbicidal action AVEFA ([5]; dose 10 g AS/ha): 0 | Herbicidal action AVEFA ([5]; dose 100 g AS/ha): 0 | herbicidal action ([6]; 300 g AS/ha): 0% | Herbicidal action BROST ([6]; dose 10 g AS/ha): 0 | Herbicidal action BROST ([6]; dose 100 g AS/ha): 0 | herbicidal action ([8]; 300 g AS/ha): 0% | Herbicidal action SORHA ([8]; dose 10 g AS/ha): 0 | Herbicidal action SORHA ([8]; dose 100 g AS/ha): 0 | herbicidal action ([9]; 300 g AS/ha): 0% | Herbicidal action CENCY ([9]; dose 10 g AS/ha): 0 | Herbicidal action CENCY ([9]; dose 100 g AS/ha): 0 | herbicidal action ([10]; 300 g AS/ha): 0% | Herbicidal action VERHE ([10]; dose 10 g AS/ha): 0 | Herbicidal action VERHE ([10]; dose 100 g AS/ha): 0 | herbicidal action ([11]; 300 g AS/ha): 0% | Herbicidal action EMEAU ([11]; dose 10 g AS/ha): 0 | Herbicidal action EMEAU ([11]; dose 100 g AS/ha): 0 | herbicidal action ([12]; 300 g AS/ha): 0% | Herbicidal action RAPRA ([12]; dose 10 g AS/ha): 0 | Herbicidal action RAPRA ([12]; dose 100 g AS/ha): 0 | herbicidal action ([13]; 300 g AS/ha): 0% | Herbicidal action BRSNW ([13]; dose 10 g AS/ha): 0 | Herbicidal action BRSNW ([13]; dose 100 g AS/ha): 0 | herbicidal action ([14]; 300 g AS/ha): 0% | Herbicidal action (crop damage) TRZAS ([14]; dose 10 g AS/ha): 0 | Herbicidal action (crop damage) TRZAS ([14]; dose 100 g AS/ha): 0 | herbicidal action ([15]; 300 g AS/ha): 0% | Herbicidal action (crop damage) HORVS ([15]; dose 10 g AS/ha): 0 | Herbicidal action (crop damage) HORVS ([15]; dose 100 g AS/ha): 0

From US20210137117A1, “HERBICIDAL MIXTURES” (Bayer Aktiengesellschaft, priority 2017, published 2021)
